Source: ChEMBL document CHEMBL1157085, “Cytoglobosins A-G, cytochalasans from a marine-derived endophytic fungus, Chaetomium globosum QEN-14” (J Nat Prod, 2010)
The source made the active and inactive calls. The calls are words filed in the database; no cut-off is given here.

What was measured:
Assay type in all cases: functional, cell-based
P388 = assay: Cytotoxicity against mouse P388 cells
A549 = assay: Cytotoxicity against human A549 cells
KB = assay: Cytotoxicity against human KB cells

Row | Structure (SMILES) | Activity (P388) | IC50 (A549) [nM] | Activity (KB)
1 | C=C1[C@@H](C)[C@H]2[C@H](Cc3c[nH]c4ccccc34)NC(=O)[C@]23C(=O)C[C@H]2C(=O)C(O)=C(C)[C@@H]2[C@@H](C)C/C=C/[C@H]3[C@@H]1O [CYTOGLOBOSIN A] | inactive | > 10000 | inactive
2 | C=C1[C@@H](C)[C@H]2[C@H](Cc3c[nH]c4ccccc34)NC(=O)[C@]23C(=O)/C=C/[C@H](O)[C@H](O)/C(C)=C/[C@@H](C)C/C=C/[C@H]3[C@@H]1O [CYTOGLOBOSIN B] | inactive | > 10000 | inactive
3 | CC1=C(C)[C@H]2[C@H](Cc3c[nH]c4ccccc34)NC(=O)[C@]23C(=O)/C=C/[C@H](O)[C@H](O)/C(C)=C/[C@@H](C)C/C=C/[C@H]3[C@@H]1O [CYTOGLOBOSIN C] | inactive | 2260 | inactive
4 | CC1=C[C@@H]2/C=C/C[C@H](C)/C=C(\C)[C@@H](O)[C@@H](O)/C=C/C(=O)[C@]23C(=O)N[C@@H](Cc2c[nH]c4ccccc24)[C@@H]3[C@@H]1C [CYTOGLOBOSIN D] | inactive | 2550 | inactive
5 | C/C1=C\[C@@H](C)C/C=C/[C@H]2C=C(CO)[C@@H](C)[C@H]3[C@H](Cc4c[nH]c5ccccc45)NC(=O)[C@]32C(=O)CCC(=O)C1=O [CYTOGLOBOSIN E] | inactive | > 10000 | inactive
